These results are taken from patent EP0411751A1, “Renin inhibitory peptides” (Beecham Group p.l.c., priority 1989, dated 1991).

The experiment addresses T1, human renin (Homo sapiens, UniProt P00797).
T1 construct: from tissue; host or cells: human plasma from blood of healthy volunteers
T1 sequence (P00797 67-406): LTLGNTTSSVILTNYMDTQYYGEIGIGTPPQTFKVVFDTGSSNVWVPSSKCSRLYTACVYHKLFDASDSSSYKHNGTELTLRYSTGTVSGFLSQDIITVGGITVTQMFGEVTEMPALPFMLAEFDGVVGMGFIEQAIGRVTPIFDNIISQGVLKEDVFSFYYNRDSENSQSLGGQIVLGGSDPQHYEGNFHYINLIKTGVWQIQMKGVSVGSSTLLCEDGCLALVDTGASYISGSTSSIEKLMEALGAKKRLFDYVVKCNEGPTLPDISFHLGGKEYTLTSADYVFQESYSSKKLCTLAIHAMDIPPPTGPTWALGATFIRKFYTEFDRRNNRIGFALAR
Description: In vitro human renin inhibition (renin activity in human plasma, angiotensin I radioimmunoassay). As to conditions: angiotensin I difference between halves incubated at 37° and 4° for 2 h, linear regression of at least three concentrations, read-out: IC₅₀. Format: biochemical. On the procedure: In vitro human renin inhibition
Renin inhibitory activity was estimated as the percentage change in renin activity in human plasma in the presence and absence of compound. The source of plasma was blood taken from healthy volunteers. Renin activity was defined by the difference in angiotensin I levels between two halves of a sample, one incubated at 37^o and the other at 4^o for 2 h. Angiotensin I levels were measured using a ¹²⁵I- angiotensin I radioimmunoassay kit (NEN/DuPont, Stevenage). Results were calculated as the mean of at least two, duplicate determinations and IC₅₀ values were calculated by linear regression analysis of at least three concentrations of compound.
For `CC(C)CNC(=O)C[C@H](O)[C@H](CC1CCCCC1)NC(=O)[C@H](CC(C)C)NC(=O)[C@H](Cc1ccccc1)NC(=O)CC1CCOc2ccccc21` (stereo partly drawn) [Example E1, Chromanyl-4-acetyl-Phe-Leu-ACHPA isobutylamide .0.5H₂O], the IC50 turned out to be 0.047 µM.

On to `Cc1ccc2c(c1)N(CC(=O)N[C@@H](Cc1ccccc1)C(=O)N[C@@H](CC(C)C)C(=O)N[C@@H](CC1CCCCC1)[C@@H](O)CC(=O)NCC(C)C)C(=O)CO2` [Example E2, 2,3-Dihydro-6-methyl-3-oxo-4H-1,4-benzoxazine-4-acetyl-Phe-Leu-ACHPA isobutylamide .H₂O], for which the IC50 was 0.22 µM.

With `CC(C)CNC(=O)C[C@H](O)[C@H](CC1CCCCC1)NC(=O)[C@H](CC(C)C)NC(=O)[C@H](Cc1ccccc1)NC(=O)CCN1C(=O)CS(=O)(=O)c2ccccc21` [Example E7, 2,3-Dihydro-1,1,3-trioxo-4H-1,4-benzothiazine-4-propanoyl-Phe-Leu-ACHPA isobutylamide .0.5H₂O], the IC50 worked out at 0.013 µM.

For `CC(C)C[C@H](NC(=O)[C@H](Cc1ccccc1)NC(=O)CCN1C(=O)COc2ccc(CN)cc21)C(=O)N[C@@H](CC1CCCCC1)[C@@H](O)CC(=O)NCCCn1ccnc1` [Example E11, 6-(Aminomethyl)-2,3-dihydro-3-oxo-4H-1,4-benzoxazine-4-propanoyl-Phe-Leu-ACHPA 3-(1imidazolyl)propylamide .3CF₃CO₂H], the IC50 amounted to 0.025 µM.

Take `CC(C)C[C@H](NC(=O)[C@H](Cc1ccccc1)NC(=O)CCN1C(=O)COc2ccc(C(=O)O)cc21)C(=O)N[C@@H](CC1CCCCC1)[C@@H](O)CC(=O)NCCCn1ccnc1` [Example E15, 6-Carboxy-2,3-dihydro-3-oxo-4H-1,4-benzoxazine-4-propanoyl-Phe-Leu-ACHPA 3-(1-imidazolyl)propylamide]: the IC50 was 0.042 µM.

For `CC(C)C[C@H](NC(=O)[C@H](Cc1ccccc1)NC(=O)CCN1C(=O)CCSc2ccccc21)C(=O)N[C@@H](CC1CCCCC1)[C@@H](O)CC(=O)NCCCn1ccnc1` [Example E18, 3,4-Dihydro-4-oxo-1,5-benzothiazepine-5(2H)-propanoyl-Phe-Leu-ACHPA 3-(1-imidazolyl)propylamide.0.5(CHCl₃)], the IC50 came to 0.008 µM.

Regarding `CC(C)C[C@H](NC(=O)[C@H](Cc1ccccc1)NC(=O)CCN1C(=O)CCS(=O)(=O)c2ccccc21)C(=O)N[C@@H](CC1CCCCC1)[C@@H](O)CC(=O)NCCCn1ccnc1` [Example E19, 3,4-Dihydro-1,1,4-trioxo-1,5-benzothiazepine-5(2H)-propanoyl-Phe-Leu-ACHPA 3-(1-imidazolyl)propylamide], the IC50 amounted to 0.022 µM.
